Measurements reported in PubChem BioAssay (NCI).
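1) Cells in 96-well plates. 2) Compound, 48 h, 5 concentrations. 3) Linear interpolation between surrounding doses. 4) Unreached endpoint = highest concentration. The concentration for 50% growth inhibition is given as GI50. TGI: total growth inhibition.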 Calls of active or inactive are those of the source. Cut-off read from the data, not from the text of the source: active = GI50 below about 0.43 µM; inactive = the rest.

Test system: RXF-631 renal
Experiment: NCI tumour cell line growth inhibition, 48 h

With `c1cc2c(ncc3cscc32)s1` the TGI was > 100 µM.
`Cc1[nH]c2ccccc2c1C1Cc2ccccc2N1C(=O)/C(Cl)=C/c1ccccc1` (configuration not stated) was tested, and the TGI was > 100 µM.
Work on `CS(=O)(=O)c1cc(=O)c2ccccc2s1` yielded a TGI of 21.3 µM.
Molecule `COc1ccc(/C(Cl)=C(\C=O)c2ccc([N+](=O)[O-])cc2)cc1` has a TGI of 68.3 µM.
In the case of `CC(C)c1ccc(C(c2ccc(OCC(=O)O)cc2)c2ccc(C(C)C)cc(=O)c2O)c(O)c(=O)c1`, the TGI is reported as 31.3 µM.
Molecule `COc1ccc(/C=C\c2cc(OC)c(OC)c(OC)c2)cc1OC(=O)NCCN(C)C` has a GI50 of 0.258 µM.
`Fc1ccc(C2SCc3nc4ccccc4n32)cc1Cl` (configuration not stated) was tested, and the TGI was > 100 µM.
For `C/C=C1/C(=C/c2[nH]c(/C=c3\[nH]/c(=C/C4=NC(=O)C(CC)=C4C)c(C)c3CCC(=O)O)c(CCC(=O)O)c2C)NC(=O)C1C` (configuration not stated), the outcome was “inactive”.
`Cc1ccc(-c2cc(=O)c3cc(C)c(C)c(C(=O)O)c3o2)cc1C` was tested, and the TGI was > 100 µM.
In the case of `O=C(Nc1ccc(Cl)cc1Cl)C(=O)C(C(=O)c1ccncc1)C1OC(=O)c2ccccc21` (configuration not stated), the TGI is reported as > 100 µM.
`N#CCc1ccc(C(C#N)/C(CCCC(=O)Nc2cccc([N+](=O)[O-])c2)=N/NC(N)=S)cc1` (configuration not stated) was tested, and the TGI was > 100 µM.
In the case of `CC(=O)N1C/C(=C\c2ccc(N(C)C)cc2)C(=O)/C(=C/c2ccc(N(C)C)cc2)C1`, the TGI is reported as > 100 µM.
